One assay addresses T1, FGFR1 (Homo sapiens, UniProt P11362).
T1 construct: made in house; host or cells: E. coli derived from BL21, infected with T7 phage
Briefly: Kinase binding assay (kinase-tagged T7 phage, qPCR), Kd. The settings on record: read-out: FGFR1 (Kd nM).

The next assay concerns the target T2, FGFR2 (Homo sapiens, UniProt P21802).
T2 construct: made in house; host or cells: E. coli derived from BL21, infected with T7 phage
The assay is described as above. To be noted: read-out: FGFR2 (Kd nM).

The next assay addresses T3, FGFR3 (Homo sapiens, UniProt P22607).
T3 construct: made in house; host or cells: E. coli derived from BL21, infected with T7 phage
The description is as above. The settings on record: read-out: FGFR3 (Kd nM).

The target in the next assay is T4, FGFR4 (Homo sapiens, UniProt P22455).
T4 construct: made in house; host or cells: E. coli derived from BL21, infected with T7 phage
T4 sequence (P22455 22-802): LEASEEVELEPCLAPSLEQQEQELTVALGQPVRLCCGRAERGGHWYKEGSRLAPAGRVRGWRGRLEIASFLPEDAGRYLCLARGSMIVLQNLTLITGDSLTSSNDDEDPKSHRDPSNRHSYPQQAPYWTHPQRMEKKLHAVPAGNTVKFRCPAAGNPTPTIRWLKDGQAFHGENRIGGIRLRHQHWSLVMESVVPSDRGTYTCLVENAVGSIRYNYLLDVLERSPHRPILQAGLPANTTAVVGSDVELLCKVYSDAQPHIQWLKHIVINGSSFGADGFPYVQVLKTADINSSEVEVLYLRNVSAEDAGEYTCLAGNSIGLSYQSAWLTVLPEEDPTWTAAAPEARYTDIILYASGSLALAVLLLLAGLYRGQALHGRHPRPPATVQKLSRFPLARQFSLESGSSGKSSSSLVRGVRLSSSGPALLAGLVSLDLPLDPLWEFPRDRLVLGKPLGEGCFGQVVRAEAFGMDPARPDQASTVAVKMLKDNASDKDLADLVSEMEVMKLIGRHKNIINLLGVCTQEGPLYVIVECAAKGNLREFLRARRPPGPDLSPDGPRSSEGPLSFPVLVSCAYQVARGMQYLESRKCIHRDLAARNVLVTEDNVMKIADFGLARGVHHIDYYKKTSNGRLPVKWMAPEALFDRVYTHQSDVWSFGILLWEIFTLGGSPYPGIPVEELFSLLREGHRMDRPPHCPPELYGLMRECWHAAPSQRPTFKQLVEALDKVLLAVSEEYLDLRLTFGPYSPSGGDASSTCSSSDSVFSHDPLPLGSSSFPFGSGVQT
The description is as above. The settings on record: read-out: FGFR4 (Kd nM).

The next assay deals with T5, BCR-FGFR1 Ba/F3 (Homo sapiens, UniProt P11362).
T5 construct: host or cells: Ba/F3; the other entry of the earlier key: BCR (P11274, Breakpoint cluster region protein)
T5 sequence (P11362 478-767 limits assumed): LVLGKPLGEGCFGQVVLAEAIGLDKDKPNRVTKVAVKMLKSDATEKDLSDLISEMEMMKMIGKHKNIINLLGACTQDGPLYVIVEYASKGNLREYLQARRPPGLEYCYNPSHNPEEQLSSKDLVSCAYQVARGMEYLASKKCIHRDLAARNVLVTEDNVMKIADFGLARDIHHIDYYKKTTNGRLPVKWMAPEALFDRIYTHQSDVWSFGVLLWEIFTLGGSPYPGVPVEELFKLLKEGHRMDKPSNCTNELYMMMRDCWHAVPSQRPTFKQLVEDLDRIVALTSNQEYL
Briefly: Ba/F3 cell viability assay (CellTiter-Glo 2.0). Format: cell-based. To be noted: Ba/F3 BCR-FGFR1 cells, 48 hours. An excerpt:
(§1) Experimental Purpose: Recombinant kinase fusions are transduced into parental Ba/F3, which becomes dependent upon this constitutive kinase activity for IL3-independent survival. Inhibition of kinase activity leads to cell death, which is monitored using CellTiter-Glo® 2.0 (Promega) which measures intracellular ATP concentration that in turn serves as a marker for viability. BCR-FGFR4 Ba/F3, BCR-FGFR1 Ba/F3 and FGFR3-BAIAP2L1 Ba/F3 were obtained from Advanced Cellular Dynamics (Seattle, WA)
(§2) Cell Viability Assay Procedure: Cell Titer-Glo® 2.0 Luminescent cell viability assay reagent was purchased from Promega (Madison, WI). BCR-FGFR4 Ba/F3, BCR-FGFR1 Ba/F3 and FGFR3-BAIAP2L1 Ba/F3 cells were cultured in RPMI1640 media supplemented with 10% fetal bovine serum. Cultures were maintained at 37° C. in a humidified atmosphere of 5% CO2 and 95% air.
(§3) Cells were plated in 96-well clear bottom/white plates (Corning #3903) at 10,000 cells/well in 100 μl of media, incubated overnight. The next day, test compound DMSO stock solutions were made at 10 mM and 2 μM final concentration. Compounds were then added to cells in a 9-dose, 10-fold dilution series starting at 30 μM with an HP 300e Digital Dispenser (each dose was applied in triplicate). DMSO was backfilled to each well up to 301 nL total volume of test compound+DMSO, and a total of 301 nL DMSO was added to a control/no test compound well in triplicate. The cells in cell culture plates were incubated with the compounds at 37° C. and 5% CO2 for 48 hours. Then 50 μl of Cell Titer Glo 2.0 reagent was added to each well of the cell culture plates. The contents were covered from light and mixed on an orbital shaker at room temperature for 10 min. Luminescence was recorded by a Synergy H1 Microplate Reader (Biotek, Winooski, VT). Cells were assessed as a percentage of DMSO only treated control cells. Curves were plotted and IC50 values were calculated using the GraphPad Prism 8 program based on a sigmoidal dose-response equation (4 parameter).
In general terms: In ATP-based viability assays light output follows the ATP content of the culture.

For another assay, the target named is T6, FGFR3-BAIAP2L1 Ba/F3 (Homo sapiens, UniProt P22607).
T6 construct: host or cells: Ba/F3; the other entry of the earlier key: BAIAP2L1 (Q9UHR4, BAR/IMD domain-containing adapter protein 2-like 1)
T6 sequence (P22607 397-758 limits assumed): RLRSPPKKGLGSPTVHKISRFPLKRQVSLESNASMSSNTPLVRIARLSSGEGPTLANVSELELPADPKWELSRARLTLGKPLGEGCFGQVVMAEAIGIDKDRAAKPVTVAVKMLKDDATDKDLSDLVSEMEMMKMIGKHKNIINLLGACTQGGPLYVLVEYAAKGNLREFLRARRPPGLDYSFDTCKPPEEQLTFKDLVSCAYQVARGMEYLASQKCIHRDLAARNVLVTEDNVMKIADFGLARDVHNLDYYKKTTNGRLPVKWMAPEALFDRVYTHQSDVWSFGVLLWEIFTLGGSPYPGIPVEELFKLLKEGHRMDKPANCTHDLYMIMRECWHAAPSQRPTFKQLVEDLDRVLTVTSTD
Description: Ba/F3 cell viability assay (CellTiter-Glo 2.0). To be noted: Ba/F3 FGFR3-BAIAP2L1 cells, 48 hours. It is filed as cell-based.
Text: as §1, §2, §3

Broadly, the Kd is a measure of binding affinity in units of concentration. The IC50 is the concentration needed to halve the response being measured.

T2 sequence (P21802 22-821): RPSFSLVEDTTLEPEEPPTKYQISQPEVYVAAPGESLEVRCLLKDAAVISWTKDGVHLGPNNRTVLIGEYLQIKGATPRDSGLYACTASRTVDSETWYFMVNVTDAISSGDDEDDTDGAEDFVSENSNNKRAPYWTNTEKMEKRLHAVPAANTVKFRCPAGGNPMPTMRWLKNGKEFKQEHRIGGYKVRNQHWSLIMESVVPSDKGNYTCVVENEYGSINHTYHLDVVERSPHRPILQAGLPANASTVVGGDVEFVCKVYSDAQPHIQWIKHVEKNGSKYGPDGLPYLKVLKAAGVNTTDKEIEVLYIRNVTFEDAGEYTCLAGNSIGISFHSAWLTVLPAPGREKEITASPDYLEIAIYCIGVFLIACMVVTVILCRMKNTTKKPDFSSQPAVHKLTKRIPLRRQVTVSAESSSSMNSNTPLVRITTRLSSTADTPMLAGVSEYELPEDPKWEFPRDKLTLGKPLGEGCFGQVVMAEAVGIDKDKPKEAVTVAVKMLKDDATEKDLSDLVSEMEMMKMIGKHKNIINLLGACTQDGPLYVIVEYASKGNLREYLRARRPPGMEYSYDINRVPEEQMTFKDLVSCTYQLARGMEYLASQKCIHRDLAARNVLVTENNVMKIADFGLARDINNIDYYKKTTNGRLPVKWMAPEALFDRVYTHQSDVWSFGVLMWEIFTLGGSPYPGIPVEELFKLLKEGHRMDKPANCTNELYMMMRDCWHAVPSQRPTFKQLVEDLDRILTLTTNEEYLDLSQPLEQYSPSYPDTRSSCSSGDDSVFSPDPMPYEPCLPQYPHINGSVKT
T1 sequence (P11362 22-822): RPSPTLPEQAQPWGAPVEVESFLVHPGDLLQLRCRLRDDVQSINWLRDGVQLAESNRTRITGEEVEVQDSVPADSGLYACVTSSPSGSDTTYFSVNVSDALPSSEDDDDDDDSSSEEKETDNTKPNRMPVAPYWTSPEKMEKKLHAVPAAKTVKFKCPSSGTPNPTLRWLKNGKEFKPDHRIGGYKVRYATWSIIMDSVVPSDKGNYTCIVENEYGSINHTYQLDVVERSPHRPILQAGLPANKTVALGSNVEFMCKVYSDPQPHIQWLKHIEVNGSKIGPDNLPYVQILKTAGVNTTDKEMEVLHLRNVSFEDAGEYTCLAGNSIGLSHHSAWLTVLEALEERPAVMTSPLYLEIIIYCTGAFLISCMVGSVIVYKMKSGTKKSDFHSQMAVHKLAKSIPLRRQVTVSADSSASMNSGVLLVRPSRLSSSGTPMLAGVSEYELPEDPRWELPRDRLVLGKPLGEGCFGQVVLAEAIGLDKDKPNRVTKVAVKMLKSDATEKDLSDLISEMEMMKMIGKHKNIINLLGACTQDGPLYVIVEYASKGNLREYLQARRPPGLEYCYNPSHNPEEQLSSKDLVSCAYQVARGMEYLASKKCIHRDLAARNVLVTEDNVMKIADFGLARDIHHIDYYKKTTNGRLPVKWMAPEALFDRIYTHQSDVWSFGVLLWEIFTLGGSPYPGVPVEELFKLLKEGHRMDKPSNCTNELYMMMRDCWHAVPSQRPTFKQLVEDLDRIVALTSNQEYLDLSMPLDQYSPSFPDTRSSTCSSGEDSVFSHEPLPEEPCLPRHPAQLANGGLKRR
T3 sequence (P22607 23-806): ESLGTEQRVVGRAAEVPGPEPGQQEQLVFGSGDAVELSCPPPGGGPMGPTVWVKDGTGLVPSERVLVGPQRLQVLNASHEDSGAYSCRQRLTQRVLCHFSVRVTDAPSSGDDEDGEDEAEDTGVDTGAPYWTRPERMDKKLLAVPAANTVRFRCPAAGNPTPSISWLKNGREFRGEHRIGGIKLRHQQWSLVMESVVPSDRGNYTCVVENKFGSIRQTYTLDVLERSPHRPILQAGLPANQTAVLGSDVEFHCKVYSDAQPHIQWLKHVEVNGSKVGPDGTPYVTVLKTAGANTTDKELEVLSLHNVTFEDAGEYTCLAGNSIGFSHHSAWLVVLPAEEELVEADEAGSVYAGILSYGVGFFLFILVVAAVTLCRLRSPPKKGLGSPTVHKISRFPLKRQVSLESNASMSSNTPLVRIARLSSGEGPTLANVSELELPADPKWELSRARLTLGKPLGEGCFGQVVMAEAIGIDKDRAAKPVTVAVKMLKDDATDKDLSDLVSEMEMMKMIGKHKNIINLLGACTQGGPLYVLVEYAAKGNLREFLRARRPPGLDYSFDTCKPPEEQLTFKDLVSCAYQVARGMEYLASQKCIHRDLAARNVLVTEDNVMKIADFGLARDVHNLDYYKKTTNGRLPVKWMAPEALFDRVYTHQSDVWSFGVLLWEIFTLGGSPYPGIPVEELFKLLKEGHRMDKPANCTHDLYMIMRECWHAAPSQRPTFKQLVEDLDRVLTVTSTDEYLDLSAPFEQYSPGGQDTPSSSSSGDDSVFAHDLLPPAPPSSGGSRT

As for `C[C@@H](Oc1ccc2[nH]nc(-c3ccc(N)nc3)c2c1)c1c(Cl)cncc1Cl` [Example 8, (R)-5-(5-(1-(3,5-Dichloropyridin-4-yl)ethoxy)-1H-indazol-3-yl)pyridin-2-amine], the Kd at FGFR1, on FGFR2, at FGFR3 and at FGFR4 was 0.1 to 100 nM throughout. In addition, the IC50 at BCR-FGFR1 Ba/F3 and at FGFR3-BAIAP2L1 Ba/F3 was 0.1 to 100 nM throughout.

As for `CCN1CCC2(CCc3cc(-c4n[nH]c5ccc(O[C@H](C)c6c(C)cnnc6C)cc45)ccc3O2)CC1` [Example 111, (R)-6-(5-(1-(3,5-dimethylpyridazin-4-yl)ethoxy)-1H-indazol-3-yl)-1′-ethylspiro[chroman-2,4′-piperidine]], the Kd at FGFR1, at FGFR2, at FGFR3 and on FGFR4 was 0.1 to 100 nM each time. The IC50 at BCR-FGFR1 Ba/F3 and on FGFR3-BAIAP2L1 Ba/F3 was 0.1 to 100 nM each time.

Regarding `C[C@@H](Oc1ccc2[nH]nc(-c3ccc(OC4CC5(C4)CN(S(C)(=O)=O)C5)nc3)c2c1)c1c(Cl)cncc1Cl` [Example 152, (R)-5-(1-(3,5-dichloropyridin-4-yl)ethoxy)-3-(6-((2-(methylsulfonyl)-2-azaspiro[3.3]heptan-6-yl)oxy)pyridin-3-yl)-1H-indazole], the equilibrium dissociation constant (Kd) on FGFR1, on FGFR2, on FGFR3 and at FGFR4 was 0.1 to 100 nM throughout. For the same compound, the IC50 at BCR-FGFR1 Ba/F3 was 100 to 250 nM; at FGFR3-BAIAP2L1 Ba/F3, 0.1 to 100 nM.

As for `Cc1cc(-c2n[nH]c3ccc(O[C@H](C)c4c(Cl)cncc4Cl)cc23)cnc1N[C@H]1CCOC1` [Example 153, 5-(5-((R)-1-(3,5-dichloropyridin-4-yl)ethoxy)-1H-indazol-3-yl)-3-methyl-N-((S)-tetrahydrofuran-3-yl)pyridin-2-amine], the Kd at FGFR1, at FGFR2, at FGFR3 and on FGFR4 was 0.1 to 100 nM each time. Further, the IC50 at BCR-FGFR1 Ba/F3 lay within 250 to 1000 nM; on FGFR3-BAIAP2L1 Ba/F3, 0.1 to 100 nM.

Regarding `CCN1CCC(Oc2ncc(-c3n[nH]c4ccc(O[C@H](C)c5c(Cl)cncc5Cl)cc34)cc2C#N)CC1` [Example 119], the Kd at FGFR1, at FGFR2, on FGFR3 and on FGFR4 was 0.1 to 100 nM throughout. Besides, the values for the IC50 at BCR-FGFR1 Ba/F3 and on FGFR3-BAIAP2L1 Ba/F3 were 250 to 1000 nM and 0.1 to 100 nM, respectively.

With `C[C@@H](Oc1ccc2[nH]nc(-c3ccc(NC(=O)CN(C)C)nc3)c2c1)c1c(Cl)cncc1Cl` [Example 13, N-[5-[5-[(1R)-1-(3,5-dichloro-4-pyridyl)ethoxy]-1H-indazol-3-yl]-2-pyridyl]-2-(dimethylamino)-acetamide], the Kd on FGFR1, at FGFR2, on FGFR3 and on FGFR4 was 0.1 to 100 nM each time. Further, the concentration for half-maximal inhibition (IC50) at BCR-FGFR1 Ba/F3 and on FGFR3-BAIAP2L1 Ba/F3 was 0.1 to 100 nM in each case.

Take `Cc1ncc(Cl)c([C@@H](C)Oc2ccc3[nH]nc(-c4ccc5c(c4)COC4(CCN(CC(F)F)CC4)O5)c3c2)c1Cl` [Example 166, (R)-6-(5-(1-(3,5-Dichloro-2-methylpyridin-4-yl)ethoxy)-1H-indazol-3-yl)-1′-(2,2-difluoroethyl)-4H-spiro[benzo[d][1,3]dioxine-2,4′-piperidine]]: the equilibrium dissociation constant (Kd) was 100 to 250 nM on FGFR1, 100 to 250 nM at FGFR2, 0.1 to 100 nM on FGFR3 and 0.1 to 100 nM at FGFR4. The half-inhibitory concentration (IC50) on BCR-FGFR1 Ba/F3 is greater than 1000 nM; at FGFR3-BAIAP2L1 Ba/F3, 100 to 250 nM.

In the case of `Cc1cc(-c2n[nH]c3ccc(O[C@H](C)c4c(Cl)cnc(C)c4Cl)cc23)cnc1N[C@@H]1CCOC1` [Example 164, 5-[5-[(1R)-1-(3,5-dichloro-2-methyl-4-pyridyl)ethoxy]-1H-indazol-3-yl]-3-methyl-N-[(3R)-tetrahydrofuran-3-yl]pyridin-2-amine], the Kd was 250 to 1000 nM at FGFR1, 0.1 to 100 nM on FGFR2, 0.1 to 100 nM at FGFR3 and 0.1 to 100 nM at FGFR4. For the same compound, the IC50 on BCR-FGFR1 Ba/F3 is greater than 1000 nM; on FGFR3-BAIAP2L1 Ba/F3 it was 0.1 to 100 nM.

For `C[C@@H](Oc1ccc2[nH]nc(-c3ccc4c(c3)COC3(CCN(CC(F)(F)F)CC3)O4)c2c1)c1c(Cl)cncc1Cl` [Example 169, 6-[5-[(1R)-1-(3,5-dichloro-4-pyridyl)ethoxy]-1H-indazol-3-yl]-1′-(2,2,2-trifluoroethyl)spiro[4H-1,3-benzodioxine-2,4′-piperidine]], the dissociation constant (Kd) on FGFR1 was 100 to 250 nM; at FGFR2 it was 100 to 250 nM; at FGFR3, 0.1 to 100 nM; on FGFR4, 0.1 to 100 nM. In addition, the values for the concentration for half-maximal inhibition (IC50) on BCR-FGFR1 Ba/F3 and on FGFR3-BAIAP2L1 Ba/F3 were greater than 1000 nM and 0.1 to 100 nM, respectively.

With `C[C@@H](Oc1ccc2[nH]nc(-c3ccc(OC4C5CN(S(C)(=O)=O)CC54)nc3)c2c1)c1c(Cl)cncc1Cl` (stereo partly drawn) [Example 162, 5-((R)-1-(3,5-dichloropyridin-4-yl)ethoxy)-3-(6-((3-(methylsulfonyl)-3-azabicyclo[3.1.0]hexan-6-yl)oxy)pyridin-3-yl)-1H-indazole], the Kd at FGFR1, at FGFR2, at FGFR3 and at FGFR4 was 0.1 to 100 nM throughout. Further, the 50% inhibitory concentration (IC50) on BCR-FGFR1 Ba/F3 lay within 100 to 250 nM; at FGFR3-BAIAP2L1 Ba/F3 it was 0.1 to 100 nM.

For `C[C@@H](Oc1ccc2[nH]nc(-c3ccc4c(c3)C(=O)CC3(CCNCC3)O4)c2c1)c1c(Cl)cncc1Cl` [Example 92, (R)-6-(5-(1-(3,5-Dichloropyridin-4-yl)ethoxy)-1H-indazol-3-yl)spiro[chromane-2,4′-piperidin]-4-one], the Kd at FGFR1, at FGFR2, on FGFR3 and at FGFR4 was 0.1 to 100 nM in each case. For the same compound, the concentration for half-maximal inhibition (IC50) is 250 to 1000 nM on BCR-FGFR1 Ba/F3 and 0.1 to 100 nM at FGFR3-BAIAP2L1 Ba/F3.

On to `Cc1ncc(Cl)c([C@@H](C)Oc2ccc3[nH]nc(-c4ccc(N[C@H]5CCOC5)nc4)c3c2)c1Cl` [Example 160, 5-[5-[(1R)-1-(3,5-dichloro-2-methyl-4-pyridyl)ethoxy]-1H-indazol-3-yl]-N-[(3S)-tetrahydrofuran-3-yl]pyridin-2-amine], for which the Kd at FGFR1, on FGFR2, at FGFR3 and at FGFR4 was 0.1 to 100 nM in each case. The figures for the IC50 on BCR-FGFR1 Ba/F3 and on FGFR3-BAIAP2L1 Ba/F3 were 100 to 250 nM and 0.1 to 100 nM, respectively.

Regarding `Cc1cc(-c2n[nH]c3ccc(O[C@H](C)c4c(Cl)cncc4Cl)cc23)cnc1NC1CCOCC1` [Example 151, (R)-5-(5-(1-(3,5-Dichloropyridin-4-yl)ethoxy)-1H-indazol-3-yl)-3-methyl-N-(tetrahydro-2H-pyran-4-yl)pyridin-2-amine], the equilibrium dissociation constant (Kd) was in the range of 100 to 250 nM at FGFR1, 100 to 250 nM on FGFR2, 0.1 to 100 nM at FGFR3 and 0.1 to 100 nM on FGFR4. Also, the IC50 was in the range of 250 to 1000 nM on BCR-FGFR1 Ba/F3 and 0.1 to 100 nM on FGFR3-BAIAP2L1 Ba/F3.

Turning to `CCN1CCC2(CC1)OCc1cc(-c3n[nH]c4ccc(O[C@H](C)c5c(C)cnnc5C)cc34)ccc1O2` [Example 106, (R)-6-(5-(1-(3,5-dimethylpyridazin-4-yl)ethoxy)-1H-indazol-3-yl)-1′-ethyl-4H-spiro[benzo[d][1,3]dioxine-2,4′-piperidine]], the dissociation constant (Kd) at FGFR1, at FGFR2, at FGFR3 and at FGFR4 was 0.1 to 100 nM each time. For the same compound, the concentration for half-maximal inhibition (IC50) at BCR-FGFR1 Ba/F3 and at FGFR3-BAIAP2L1 Ba/F3 was 0.1 to 100 nM each time.

Take `CCN1CCC2(CC1)OCc1cc(-c3n[nH]c4ccc(O[C@H](C)c5c(Cl)cncc5Cl)cc34)ccc1O2` [Example 96, (R)-6-(5-(1-(3,5-Dichloropyridin-4-yl)ethoxy)-1H-indazol-3-yl)-1′-ethyl-4H-spiro[benzo[d][1,3]dioxine-2,4′-piperidine]]: the dissociation constant (Kd) at FGFR1, at FGFR2, at FGFR3 and on FGFR4 was 0.1 to 100 nM each time. The IC50 on BCR-FGFR1 Ba/F3 is 100 to 250 nM; at FGFR3-BAIAP2L1 Ba/F3 it was 0.1 to 100 nM.
